Measured values: the supplement of paper PMC11061612

Legend:
Experiment in all cases: Bliss excess, mean over the matrix (fraction); higher = more synergy
[1] = test system: 8305C (Thyroid Gland Carcinoma)
Summary of the method: (§1)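 Bliss excess equals the observed combination effect minus the expected value EA + EB − EA·EB, where EA and EB are the effects of each agent alone. Combination Emax is the second-highest inhibition within the matrix. Inhibition was scaled from CellTiter-Glo 2.0 luminescence, with 0 set by vehicle wells and 1 by blank wells, after 72 hours of two-drug dosing of cells plated in 1536-well plates.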

[2] = test system: CAL-51 (Breast Carcinoma)
Summary of the method: as §1

[3] = test system: CAL-54 (Kidney Carcinoma)
Summary of the method: as §1

[4] = test system: HCC-15 (Squamous Cell Lung Carcinoma)
Summary of the method: as §1

[5] = test system: HDLM-2 (Hodgkin's Lymphoma)
Summary of the method: as §1

[6] = test system: K5 (Thyroid Gland Carcinoma)
Summary of the method: as §1

[7] = test system: KYSE-410 (Esophageal Squamous Cell Carcinoma)
Summary of the method: as §1

[8] = test system: LU-139 (Small Cell Lung Carcinoma)
Summary of the method: as §1

[9] = test system: MHH-PREB-1 (B-Cell Non-Hodgkin's Lymphoma)
Summary of the method: as §1

[10] = test system: Mewo (Melanoma)
Summary of the method: as §1

[11] = test system: NCI-H2461 (Mesothelioma)
Summary of the method: as §1

[12] = test system: NCI-H2795 (Mesothelioma)
Summary of the method: as §1

[13] = test system: NCI-H28 (Mesothelioma)
Summary of the method: as §1

[14] = test system: OC-314 (Ovarian Carcinoma)
Summary of the method: as §1

[15] = test system: RKO (Colorectal Carcinoma)
Summary of the method: as §1

[16] = test system: SK-OV-3 (Ovarian Carcinoma)
Summary of the method: as §1

[17] = test system: SU-DHL-6 (B-Cell Non-Hodgkin's Lymphoma)
Summary of the method: as §1

[18] = test system: SW1116 (Colorectal Carcinoma)
Summary of the method: as §1

[19] = test system: SW1271 (Small Cell Lung Carcinoma)
Summary of the method: as §1

[20] = test system: SW626 (Colorectal Carcinoma)
Summary of the method: as §1

| Structure (SMILES) | Bliss excess [1] | Bliss excess [2] | Bliss excess [3] | Bliss excess [4] | Bliss excess [5] | Bliss excess [6] | Bliss excess [7] | Bliss excess [8] | Bliss excess [9] | Bliss excess [10] | Bliss excess [11] | Bliss excess [12] | Bliss excess [13] | Bliss excess [14] | Bliss excess [15] | Bliss excess [16] | Bliss excess [17] | Bliss excess [18] | Bliss excess [19] | Bliss excess [20] |
| --- | --- | --- | --- | --- | --- | --- | --- | --- | --- | --- | --- | --- | --- | --- | --- | --- | --- | --- | --- | --- |
| Cc1cc2ncnn2cc1Nc1ncc2c(n1)n(C1CCOCC1)c(=O)n2C [AZD7648] + C=CCn1c(=O)c2cnc(Nc3ccc(N4CCN(C)CC4)cc3)nc2n1-c1cccc(C(C)(C)O)n1 [AZD1775] (first compound max 10 µM, partner max 1 µM) | -0.0825 | -0.05 | 0.016 | 0.0339 | -0.0387 | 0.0433 | -0.0094 | -0.0642 | 0.028 | 0.0455 | -0.0524 | 0.056 | 0.0291 | 0.0579 | -0.032 | -0.0663 | -0.0816 | -0.0172 | -0.0199 | 0.0341 |
| Cc1c2c(nn1C)CSCc1cc(n(C)n1)CSc1cc(c3ccccc3c1)OCCCc1c(C(=O)O)n(C)c3c-2c(Cl)ccc13 [AZD5991] + C[C@@H]1COCCN1C2=NC(=NC(=C2)C3(CC3)[S@](=N)(=O)C)C4=C5C=CNC5=NC=C4 [AZD6738] (first compound max 1 µM, 7x7, partner max 10 µM) | -0.0605 | 0.0585 | -0.0259 | 0.0549 | -0.0291 | 0.0076 | 0.0281 | 0.0214 | -0.0095 | -0.0329 | 0.0016 | 0.0835 | 0.0026 | 0.0197 | 0.0082 | 0.0538 | -0.0137 | 0.0515 | 0.0121 | 0.0268 |
| CN(CCO)CC[C@H](CSc1ccccc1)Nc1ccc(S(=O)(=O)NC(=O)c2ccc(N3CCC([C@@H](O)c4ccccc4-c4ccc(Cl)cc4)CC3)cc2)cc1S(=O)(=O)C(F)(F)F [AZD4320] + C[C@@H]1COCCN1C2=NC(=NC(=C2)C3(CC3)[S@](=N)(=O)C)C4=C5C=CNC5=NC=C4 [AZD6738] (first compound max 1 µM, 7x7, partner max 10 µM) | -0.004 | -0.0316 | -0.0435 | -0.0124 | -0.0171 | -0.0512 | -0.0723 | -0.0613 | -0.039 | -0.0275 | -0.0341 | 0.0173 | -0.0284 | -0.0066 | -0.0309 | -0.0984 | -0.0311 | -0.0406 | -0.0085 | -0.0606 |
| CN(C)CCCOc1ccc(-c2ccc3ncc4c(c3c2)n(C2CCOCC2)c(=O)n4C)cn1 [AZD0156] + C[C@@H]1COCCN1C2=NC(=NC(=C2)C3(CC3)[S@](=N)(=O)C)C4=C5C=CNC5=NC=C4 [AZD6738] (first compound max 1 µM, 7x7, partner max 10 µM) | -0.0765 | 0.0198 | -0.0136 | -0.0021 | -0.0448 | -0.0074 | -0.0201 | -0.0323 | 0.0147 | -0.0365 | -0.0664 | -0.0643 | -0.0606 | 0.0095 | 0.0186 | -0.015 | 0.0136 | -0.034 | 0.0015 | -0.0214 |
| CC(=O)Nc1cccc(-n2c(=O)n(C3CC3)c(=O)c3c(Nc4ccc(I)cc4F)n(C)c(=O)c(C)c32)c1 [Trametinib] + Cc1nc(-c2cn3c(n2)-c2ccc(-c4cnn(C(C)(C)C(N)=O)c4)cc2OCC3)n(C(C)C)n1 [Taselisib] (first compound max 1 µM, 7x7, partner max 10 µM) | 0.0656 | 0.0242 | 0.0303 | 0.187 | 0.0406 | 0.0183 | 0.168 | -0.0203 | 0.0277 | 0.0975 | 0.0312 | 0.0749 | 0.0616 | 0.066 | 0.219 | 0.0582 | 0.0238 | 0.139 | 0.0896 | 0.0644 |
| CC1(C)CCC(CN2CCN(c3ccc(C(=O)NS(=O)(=O)c4ccc(NCC5CCOCC5)c([N+](=O)[O-])c4)c(Oc4cnc5[nH]ccc5c4)c3)CC2)=C(c2ccc(Cl)cc2)C1 [Venetoclax] + C1CN(CCC1(C(=O)N[C@@H](CCO)C2=CC=C(C=C2)Cl)N)C3=NC=NC4=C3C=CN4 [Capivasertib] (first compound max 1 µM, 7x7, partner max 3 µM) | 0.0038 | -0.0879 | -0.027 | -0.0286 | -0.0166 | -0.0618 | -0.0427 | -0.0467 | -0.0398 | -0.0093 | -0.0184 | -0.111 | -0.0848 | -0.0017 | -0.0173 | -0.0577 | 0.0537 | -0.0491 | -0.105 | -0.018 |
| COc1nnc2ccc(N3CCC(c4ccc(OCCN5CCN(C)C(=O)[C@H]5C)cc4)CC3)nn12 [AZD5153] + C[C@@H]1COCCN1C2=NC(=NC(=C2)C3(CC3)[S@](=N)(=O)C)C4=C5C=CNC5=NC=C4 [AZD6738] (first compound max 1 µM, 7x7, partner max 10 µM) | -0.0088 | 0.0189 | -0.0043 | 0.069 | -0.0567 | -0.0057 | 0.041 | 0.01 | 0.0605 | -0.007 | -0.0571 | 0.0037 | 0.0141 | 0.0111 | -0.0442 | -0.0285 | -0.0505 | -0.0165 | -0.0204 | 0.054 |
